Where no end group is shown, it is not given here.
Assays:
Gi2 = biological target: T1, Gi2 (Bos taurus, UniProt A7MBH9); assay: GTPγS binding assay, peptide 14-induced Gi2 activation; assay type: biochemical, bovine
T1 construct: trimeric Gi2 (i.e., Gi2 αβγ) purified from bovine brain to near homogeneity; from tissue; host or cells: bovine brain
Experimental: Materials and Methods The in vitro assays described below utilize the couplone portion of each of a number of G-coupled receptors, instead of an intact receptor molecule, as a means for activating the corresponding anticouplone or intact G-protein. Except as noted below, Gi2 used in this study was trimeric Gi2 (i.e., Gi2 αβγ) purified from bovine brain to near homogeneity (Katada et al., FEBS Lett. 213:353-358 (1987), stored in buffer A (20 mM hepes/NaOH (pH 7.4), 1 mM EDTA, and 0.7% CHAPS), and diluted≥10 fold for assays. The Gi2 used for the reconstitution experiment was trimeric Gi2 purified from bovine spleen to homogeneity and dissolved in buffer B (Morishita et al., 1989). Gi3 α (Morishita et al., Biochem. Biophys. Res. Commun. 172:249-255 (1990), was purified from bovine spleen and used in combination with 1.5-fold concentrated Gβγ (Katada et al., 1987). This preparation of Gi3 α was 10-20% contaminated by Gi1 α, but not by other G proteins. Trimeric Gs and Gβγ purified from bovine brain to near homogeneity (Katada et al., 1987) were also stored in buffer A.
GTPγS binding Assay--GTPγS binding to G proteins was assayed at 37° C. in 20 mM Hepes/NaOH buffer (pH 7.4) containing 130 μM MgCl2, 110 μM EDTA and 60 nM [^35 S]GTPγS, as described previously (Okamoto et al., 1990). GTPγS binding to polypeptides was negligible. The total amount of G protein was measured as maximal GTPγS binding at room temperature, as described (Okamoto et al., Cell 67:723-730, 1991a). [^35 S]GTPγS was purchased from DuPont-New England Nuclear. Binding of GTPγS to G proteins obeyed first-order kinetics according to the equation ln[(BT-B)/BT]=-kapp t, where B is the binding at time t and BT is the total binding observable at an infinite time. Thus, the apparent first-order rate constant for GTPγS binding (kapp), which is equal to the slope of the tangent to the GTPγS binding curve at time 0 and represents the actual GTPγS binding rate, was calculated from this equation.
In the experiment illustrated in FIG. 1A, 10 nM Gi2 was incubated with 30 μM peptide 14 (RVGLVRGEKARKGK; SEQ ID NO: 27), the couplone portion of the IGF-II receptor, in the presence of various concentrations of (.quadrature.) ACGi2 (DAVTDVIIKNNLKDC; SEQ ID NO: 3), (567 ) the control Gi2 α Glu297-Asp310 peptide (EAASYIQSKFEKLN; SEQ ID NO: 18), or (.diamond.) the control Gi2 α Lys346-Phe355 peptide (KNNLKDCGLF; SEQ ID NO: 19) for 5 min under the GTPγS binding assay conditions described above, and GTPγS binding to G proteins was measured. The effect of ACGi2 on Gi2 in the absence of peptide 14 is indicated by .box-solid.. Percent stimulation of GTPγS binding was calculated by subtracting the basal fractional binding and dividing by the stimulated fractional binding observed in the absence of ACGi2. The basal fractional binding (=0%) was 0.39 mol GTPγS binding/mol Gi /5 min (5 min^-1). The 100% increase represents the GTPγS binding of 0.85 (5 min^-1). Values in all figures represent the mean ±S.E. of three experiments.
To verify the notion that ACGi2 acts on Gi2 itself, and not on receptor sequences, two series of experiments were performed. First, the dose-response curve for peptide 14 action on Gi2 in the presence of various concentrations of ACGi2 was generated (FIG. 2A). Following incubation of 10 nM Gi2 with various concentrations of peptide 14 in the absence (.quadrature.) or presence of 10 μM (.diamond-solid.) or 30 μM (.box-solid.) ACGi2 for 5 min, GTPγS binding was assayed; fractional GTPγS binding to Gi2 is indicated in the figure.
The second series of experiments investigated the effect of ACGi2 on lower concentrations of Gi2 that had been activated by peptide 14 to the same extent (FIG. 2B). 1 nM Gi2 was incubated for 5 min with 3 μM peptide 14 in the presence of various concentrations of ACGi2, and GTPγS binding was measured. The fractional GTPγS binding at 0% and 100% in this experiment was 0.40 and 0.55 (5 min^-1), respectively. […]

mAChR-Gi2 coupling = biological target: T2, mAChR-Gi2 coupling (Bos taurus, UniProt A7MBH9); assay: GTPγS binding rate in mAChR-Gi2 reconstituted phospholipid vesicles; assay type: biochemical, porcine mAChR, bovine Gi2; details: 30 μM ACGi2, 10 mM acetylcholine; read-out: inhibition of acetylcholine-induced Gi2 activation
T2 construct: trimeric Gi2 purified from bovine spleen to homogeneity; from tissue; host or cells: bovine spleen (Gi2); porcine brain (mAChR)
Experimental: Materials and Methods The in vitro assays described below utilize the couplone portion of each of a number of G-coupled receptors, instead of an intact receptor molecule, as a means for activating the corresponding anticouplone or intact G-protein. […]
GTPγS binding Assay--GTPγS binding to G proteins was assayed at 37° C. in 20 mM Hepes/NaOH buffer (pH 7.4) containing 130 μM MgCl2, 110 μM EDTA and 60 nM [^35 S]GTPγS, as described previously (Okamoto et al., 1990). […] The total amount of G protein was measured as maximal GTPγS binding at room temperature, as described (Okamoto et al., Cell 67:723-730, 1991a). […] Thus, the apparent first-order rate constant for GTPγS binding (kapp), which is equal to the slope of the tangent to the GTPγS binding curve at time 0 and represents the actual GTPγS binding rate, was calculated from this equation. […]

T1 sequence (A7MBH9 2-355 limits assumed): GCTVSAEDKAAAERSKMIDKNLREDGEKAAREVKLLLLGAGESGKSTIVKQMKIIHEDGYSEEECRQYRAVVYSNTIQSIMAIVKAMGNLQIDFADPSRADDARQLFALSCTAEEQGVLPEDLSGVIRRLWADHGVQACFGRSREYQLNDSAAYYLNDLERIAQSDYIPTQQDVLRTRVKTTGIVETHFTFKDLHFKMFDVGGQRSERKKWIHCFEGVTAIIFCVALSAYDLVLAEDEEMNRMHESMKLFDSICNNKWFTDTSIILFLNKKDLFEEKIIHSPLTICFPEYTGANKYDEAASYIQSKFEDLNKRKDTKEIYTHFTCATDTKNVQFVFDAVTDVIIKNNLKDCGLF
T1 sequence (P62871 2-340 partner limits assumed): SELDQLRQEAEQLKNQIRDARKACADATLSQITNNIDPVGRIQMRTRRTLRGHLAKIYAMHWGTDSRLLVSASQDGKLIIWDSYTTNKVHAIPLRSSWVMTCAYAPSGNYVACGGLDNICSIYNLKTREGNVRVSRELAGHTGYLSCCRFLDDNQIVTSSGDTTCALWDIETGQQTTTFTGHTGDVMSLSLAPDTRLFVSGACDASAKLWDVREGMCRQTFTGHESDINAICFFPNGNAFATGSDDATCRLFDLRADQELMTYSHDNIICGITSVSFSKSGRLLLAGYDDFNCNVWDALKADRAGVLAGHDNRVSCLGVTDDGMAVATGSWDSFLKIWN
T1 sequence (P63212 2-68 partner limits assumed): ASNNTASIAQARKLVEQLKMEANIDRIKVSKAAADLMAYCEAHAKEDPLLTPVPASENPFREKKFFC
T2 sequence (A7MBH9 2-355 limits assumed): as the sequence (A7MBH9 2-355 limits assumed) above
T2 sequence (P62871 2-340 partner limits assumed): as the sequence (P62871 2-340 partner limits assumed) above
T2 sequence (P63212 2-68 partner limits assumed): as the sequence (P63212 2-68 partner limits assumed) above

Sequence: DAVTDVIIKNNLKDC [ACGi2, DAVTDVIIKNNLKDC]
- IC50 (Gi2; 10 nM Gi2, 30 μM peptide 14, 5 min, read-out: IC50, inhibition of peptide 14-induced GTPγS binding to Gi2): ~3 µM
- inhibition at 3 µM (Gi2; at 3 μM ACGi2 (so in the source), read-out: inhibition of stimulation of Gi2): 100%
- inhibition at 30 µM (mAChR-Gi2 coupling): ~75%
